From US20030170176A1, “Individualization of therapy with antipsychotics” (McGill University, priority 2001, published 2003)

System: AAMU-Ab
Test: Competitive antigen ELISA, cross-reactivity of AAMU-Ab
Assay type: binding, rabbit
Conditions: 0 = absence of inhibition or inhibition no higher than 40% at highest concentration tested (5 × 10^−3 M)
Protocol: Competitive Antigen ELISA
Buffers and water without additives are filtered through millipore filters and kept for 1 week. BSA, antibodies, Tween™ 20 and horse radish peroxidase conjugates are added to these buffers and water just prior to use. Urine samples are usually collected 4 hours after drinking a cup of coffee (instant or brewed with approximately 100 mg of caffeine per cup) and stored at −80° C. The urine samples are diluted 10 times with sodium phosphate buffer (620 mosm, pH 7.50) and are subsequently diluted with water to give concentrations of AAMU and 1× no higher than 3×10^−6 M in the ELISA. All the pipettings are done with an eight-channel pipette, except those of the antibody and sample solutions. Starting with the last well, 100 μL of a carbonate buffer (100 mM, pH 9.6) containing 2.5 μg mL^−1 antibodies are added to each well. After 90 min. at room temperature, the wells are washed three times with […] of TPB: isotonic sodium phosphate buffer (310 mosm, pH 7.50) containing 0.05% Tween™ 20.
After the initial wash, unoccupied sites are blocked by incubation for 90 min. at room temperature with 100 μL TBP containing 3% BSA. The wells are washed four times with 100 μL TPB. […] The microplate is gently shaken with an orbital shaker at room temperature for 3-4 hours. […]

O=c1[nH]c(=O)c2[nH]cnc2[nH]1 [Xanthine]
% Cross-Reaction AAMU-Ab: 0a %
